Measured values published in publication doi:10.1101/2023.11.24.568596v1 (biorxiv, 2023).
One block for each compound: values may come before it.

Experiments:
Conditions in all cases: binder
CaMK2b = CaMK2b (Homo sapiens, UniProt Q13554)
MAP2K6 = target: T1, MAP2K6 (Homo sapiens, UniProt P52564)
T1 sequence (P52564 1-334): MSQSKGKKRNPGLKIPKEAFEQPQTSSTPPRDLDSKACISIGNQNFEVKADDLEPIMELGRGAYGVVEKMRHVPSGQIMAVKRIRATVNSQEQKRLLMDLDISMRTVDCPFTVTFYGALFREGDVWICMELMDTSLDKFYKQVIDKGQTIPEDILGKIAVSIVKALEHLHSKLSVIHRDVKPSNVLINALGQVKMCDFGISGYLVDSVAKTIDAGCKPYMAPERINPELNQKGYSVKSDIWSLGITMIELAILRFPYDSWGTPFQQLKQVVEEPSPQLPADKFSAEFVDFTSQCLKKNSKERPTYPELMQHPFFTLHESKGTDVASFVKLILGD

CK2a2 = CK2a2 (Homo sapiens, UniProt P19784)
FES = FES (Homo sapiens, UniProt P07332)
p38a = p38a (Homo sapiens, UniProt Q16539)
MAPKAPK2 = MAPKAPK2 (Homo sapiens, UniProt P49137)
FLT1 = FLT1 (Homo sapiens, UniProt P17948)
FGFR1 = FGFR1 (Homo sapiens, UniProt P11362)
Sequence of FGFR1 (P11362 whole entry): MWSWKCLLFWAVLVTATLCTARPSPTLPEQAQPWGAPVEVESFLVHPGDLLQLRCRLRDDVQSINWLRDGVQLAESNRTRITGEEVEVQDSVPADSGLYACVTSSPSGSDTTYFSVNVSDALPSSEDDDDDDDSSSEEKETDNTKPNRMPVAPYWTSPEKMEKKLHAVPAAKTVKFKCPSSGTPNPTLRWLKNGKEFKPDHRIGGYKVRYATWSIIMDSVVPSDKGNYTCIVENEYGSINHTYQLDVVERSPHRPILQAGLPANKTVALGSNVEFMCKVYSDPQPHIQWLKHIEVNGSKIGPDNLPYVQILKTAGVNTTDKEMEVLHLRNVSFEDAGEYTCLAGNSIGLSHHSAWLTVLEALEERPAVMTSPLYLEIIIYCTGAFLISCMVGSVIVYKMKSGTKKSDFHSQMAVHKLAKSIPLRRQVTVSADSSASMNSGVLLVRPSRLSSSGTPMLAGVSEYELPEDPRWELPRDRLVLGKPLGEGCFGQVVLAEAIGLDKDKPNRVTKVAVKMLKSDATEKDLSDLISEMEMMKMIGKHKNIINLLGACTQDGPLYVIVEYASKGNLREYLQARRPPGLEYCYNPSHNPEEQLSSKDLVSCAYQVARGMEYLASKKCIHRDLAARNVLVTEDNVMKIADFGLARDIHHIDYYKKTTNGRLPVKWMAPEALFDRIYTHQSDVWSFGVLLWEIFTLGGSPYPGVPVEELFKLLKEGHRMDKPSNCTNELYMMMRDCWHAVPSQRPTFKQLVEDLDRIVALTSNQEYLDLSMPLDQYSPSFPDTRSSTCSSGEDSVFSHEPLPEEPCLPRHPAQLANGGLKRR

PHKG2 = target: T2, PHKG2 (Homo sapiens, UniProt P15735)
T2 sequence (P15735 1-406): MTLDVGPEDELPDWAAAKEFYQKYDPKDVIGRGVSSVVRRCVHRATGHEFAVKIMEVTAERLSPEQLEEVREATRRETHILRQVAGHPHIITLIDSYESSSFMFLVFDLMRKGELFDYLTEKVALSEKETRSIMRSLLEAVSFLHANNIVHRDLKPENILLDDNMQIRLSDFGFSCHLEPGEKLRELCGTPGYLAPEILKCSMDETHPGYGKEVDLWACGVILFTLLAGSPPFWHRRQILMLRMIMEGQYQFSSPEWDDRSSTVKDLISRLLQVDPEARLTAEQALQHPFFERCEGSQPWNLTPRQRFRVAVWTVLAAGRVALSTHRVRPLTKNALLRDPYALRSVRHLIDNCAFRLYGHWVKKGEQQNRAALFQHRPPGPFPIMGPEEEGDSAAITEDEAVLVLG

AAK1 = AAK1 (Homo sapiens, UniProt Q2M2I8)
NEK2 = target: T3, NEK2 (Homo sapiens, UniProt P51955)
T3 sequence (P51955 1-445): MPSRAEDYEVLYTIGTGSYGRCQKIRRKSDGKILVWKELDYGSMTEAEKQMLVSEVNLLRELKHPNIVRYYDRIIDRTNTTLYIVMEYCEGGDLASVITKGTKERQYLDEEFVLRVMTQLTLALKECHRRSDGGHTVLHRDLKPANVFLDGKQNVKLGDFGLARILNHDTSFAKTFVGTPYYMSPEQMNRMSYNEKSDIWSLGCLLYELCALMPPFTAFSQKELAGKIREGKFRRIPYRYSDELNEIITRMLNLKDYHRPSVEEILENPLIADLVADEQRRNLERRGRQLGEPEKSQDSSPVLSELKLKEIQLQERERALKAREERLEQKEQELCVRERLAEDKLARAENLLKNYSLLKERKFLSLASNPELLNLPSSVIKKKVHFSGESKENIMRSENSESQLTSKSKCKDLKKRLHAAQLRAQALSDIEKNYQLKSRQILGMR

CDK2 = CDK2 (Homo sapiens, UniProt P24941)
MSK1b = MSK1b (Homo sapiens, UniProt O75582)
Sequence of MSK1b (O75582 whole entry): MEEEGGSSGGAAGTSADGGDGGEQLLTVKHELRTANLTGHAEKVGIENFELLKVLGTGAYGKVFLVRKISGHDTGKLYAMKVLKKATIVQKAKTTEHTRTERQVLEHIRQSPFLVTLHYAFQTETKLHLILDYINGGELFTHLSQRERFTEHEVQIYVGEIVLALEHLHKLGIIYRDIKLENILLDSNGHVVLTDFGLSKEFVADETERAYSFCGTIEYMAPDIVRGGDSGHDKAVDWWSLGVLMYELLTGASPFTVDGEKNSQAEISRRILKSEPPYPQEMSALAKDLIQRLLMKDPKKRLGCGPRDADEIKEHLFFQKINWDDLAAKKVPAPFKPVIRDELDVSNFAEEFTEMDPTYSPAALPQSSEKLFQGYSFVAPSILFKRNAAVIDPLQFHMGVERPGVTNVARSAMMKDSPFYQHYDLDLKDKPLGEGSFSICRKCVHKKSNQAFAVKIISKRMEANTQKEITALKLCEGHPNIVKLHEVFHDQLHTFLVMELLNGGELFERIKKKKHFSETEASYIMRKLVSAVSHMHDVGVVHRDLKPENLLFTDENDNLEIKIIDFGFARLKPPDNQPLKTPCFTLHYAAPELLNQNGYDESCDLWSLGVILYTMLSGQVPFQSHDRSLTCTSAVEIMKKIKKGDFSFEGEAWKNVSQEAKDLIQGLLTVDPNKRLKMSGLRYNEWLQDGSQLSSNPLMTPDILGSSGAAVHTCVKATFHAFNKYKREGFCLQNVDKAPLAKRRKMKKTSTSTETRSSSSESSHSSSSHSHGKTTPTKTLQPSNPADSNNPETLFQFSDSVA

BRAF = BRAF (Homo sapiens, UniProt P15056)
Sequence of BRAF (P15056 whole entry): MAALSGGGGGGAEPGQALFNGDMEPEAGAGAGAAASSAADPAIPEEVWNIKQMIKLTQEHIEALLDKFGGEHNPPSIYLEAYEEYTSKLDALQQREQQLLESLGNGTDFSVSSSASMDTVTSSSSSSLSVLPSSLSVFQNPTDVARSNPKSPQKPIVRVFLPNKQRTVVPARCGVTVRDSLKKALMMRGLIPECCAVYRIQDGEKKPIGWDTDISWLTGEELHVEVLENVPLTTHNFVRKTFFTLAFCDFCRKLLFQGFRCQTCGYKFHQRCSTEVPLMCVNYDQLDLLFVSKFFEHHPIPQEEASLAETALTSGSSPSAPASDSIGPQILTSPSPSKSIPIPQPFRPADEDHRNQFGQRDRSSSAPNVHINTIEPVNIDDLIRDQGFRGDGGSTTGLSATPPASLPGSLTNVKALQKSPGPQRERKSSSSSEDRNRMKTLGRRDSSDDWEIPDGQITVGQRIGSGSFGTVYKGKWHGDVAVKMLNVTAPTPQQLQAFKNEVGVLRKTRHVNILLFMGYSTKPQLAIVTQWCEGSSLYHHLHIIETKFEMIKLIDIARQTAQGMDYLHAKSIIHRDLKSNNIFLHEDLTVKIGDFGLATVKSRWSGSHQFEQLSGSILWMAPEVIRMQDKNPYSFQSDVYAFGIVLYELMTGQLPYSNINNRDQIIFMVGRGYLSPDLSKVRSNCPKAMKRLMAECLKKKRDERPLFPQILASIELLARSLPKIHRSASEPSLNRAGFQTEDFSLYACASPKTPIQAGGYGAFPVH

PAK1 = PAK1 (Homo sapiens, UniProt Q13153)
MRCKa = MRCKa (Homo sapiens, UniProt Q5VT25)
Sequence of MRCKa (Q5VT25 whole entry): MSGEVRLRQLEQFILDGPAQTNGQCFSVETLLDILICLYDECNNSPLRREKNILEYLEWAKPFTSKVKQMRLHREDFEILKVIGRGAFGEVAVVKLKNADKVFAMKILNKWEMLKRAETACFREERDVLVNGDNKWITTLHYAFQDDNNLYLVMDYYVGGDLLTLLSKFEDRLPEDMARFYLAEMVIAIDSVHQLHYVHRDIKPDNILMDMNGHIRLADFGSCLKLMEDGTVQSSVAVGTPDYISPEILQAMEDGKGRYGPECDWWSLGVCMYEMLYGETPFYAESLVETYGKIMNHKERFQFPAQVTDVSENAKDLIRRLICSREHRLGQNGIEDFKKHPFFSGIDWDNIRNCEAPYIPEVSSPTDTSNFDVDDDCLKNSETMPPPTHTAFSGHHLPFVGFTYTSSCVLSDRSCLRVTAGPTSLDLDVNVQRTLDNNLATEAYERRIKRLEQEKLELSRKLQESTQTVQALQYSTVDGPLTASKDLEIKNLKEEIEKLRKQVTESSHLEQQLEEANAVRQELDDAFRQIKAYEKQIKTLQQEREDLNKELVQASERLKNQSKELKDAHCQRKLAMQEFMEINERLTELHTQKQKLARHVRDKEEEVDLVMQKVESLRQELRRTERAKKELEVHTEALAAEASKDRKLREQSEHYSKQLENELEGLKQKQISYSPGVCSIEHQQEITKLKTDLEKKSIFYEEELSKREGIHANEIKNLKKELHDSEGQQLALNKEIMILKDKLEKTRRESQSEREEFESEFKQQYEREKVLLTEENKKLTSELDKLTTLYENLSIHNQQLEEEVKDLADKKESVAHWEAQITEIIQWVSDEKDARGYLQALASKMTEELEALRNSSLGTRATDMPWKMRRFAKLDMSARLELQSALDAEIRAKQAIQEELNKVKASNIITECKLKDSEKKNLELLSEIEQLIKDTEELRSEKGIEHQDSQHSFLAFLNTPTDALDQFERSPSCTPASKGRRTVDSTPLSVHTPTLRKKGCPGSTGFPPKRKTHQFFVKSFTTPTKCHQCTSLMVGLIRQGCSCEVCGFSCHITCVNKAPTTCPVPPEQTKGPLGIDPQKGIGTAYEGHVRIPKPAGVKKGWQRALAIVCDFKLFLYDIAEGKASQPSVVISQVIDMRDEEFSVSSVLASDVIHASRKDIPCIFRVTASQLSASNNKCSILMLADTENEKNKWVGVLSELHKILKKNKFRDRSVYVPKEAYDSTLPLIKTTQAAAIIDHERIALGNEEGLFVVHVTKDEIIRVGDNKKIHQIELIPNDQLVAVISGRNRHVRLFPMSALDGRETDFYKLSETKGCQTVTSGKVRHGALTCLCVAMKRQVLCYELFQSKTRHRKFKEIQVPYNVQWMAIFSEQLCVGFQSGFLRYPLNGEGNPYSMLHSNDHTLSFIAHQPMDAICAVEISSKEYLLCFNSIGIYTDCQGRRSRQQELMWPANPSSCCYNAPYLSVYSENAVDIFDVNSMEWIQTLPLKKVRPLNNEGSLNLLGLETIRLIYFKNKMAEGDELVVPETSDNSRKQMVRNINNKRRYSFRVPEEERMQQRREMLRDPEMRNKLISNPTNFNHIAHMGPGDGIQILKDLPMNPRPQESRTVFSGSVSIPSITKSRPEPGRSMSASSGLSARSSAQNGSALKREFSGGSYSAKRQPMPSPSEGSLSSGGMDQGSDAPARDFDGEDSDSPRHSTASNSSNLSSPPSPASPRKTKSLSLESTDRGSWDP

Sequence of CaMK2b (Q13554 whole entry): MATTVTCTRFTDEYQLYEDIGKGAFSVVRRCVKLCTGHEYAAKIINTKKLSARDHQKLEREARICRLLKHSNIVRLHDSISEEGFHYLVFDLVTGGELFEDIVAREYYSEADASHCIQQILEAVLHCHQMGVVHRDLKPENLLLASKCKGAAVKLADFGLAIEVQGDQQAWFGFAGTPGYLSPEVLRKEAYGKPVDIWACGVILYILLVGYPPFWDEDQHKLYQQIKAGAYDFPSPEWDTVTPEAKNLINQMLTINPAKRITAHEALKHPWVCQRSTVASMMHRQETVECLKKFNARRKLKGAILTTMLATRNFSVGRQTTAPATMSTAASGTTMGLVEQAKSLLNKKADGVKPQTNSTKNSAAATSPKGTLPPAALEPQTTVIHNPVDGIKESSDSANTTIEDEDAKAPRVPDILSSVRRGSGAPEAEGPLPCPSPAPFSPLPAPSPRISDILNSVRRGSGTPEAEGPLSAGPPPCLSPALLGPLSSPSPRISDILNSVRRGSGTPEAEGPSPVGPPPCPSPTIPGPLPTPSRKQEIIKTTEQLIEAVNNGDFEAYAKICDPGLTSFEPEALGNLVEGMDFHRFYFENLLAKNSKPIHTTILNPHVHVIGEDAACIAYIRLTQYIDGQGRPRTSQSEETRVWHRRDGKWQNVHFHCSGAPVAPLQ

SMILES: Cc1cccc(-c2ccc(-c3cc4cnc(NC(CO)CO)nc4n(CCCCN)c3=O)c(Cl)c2)n1 [compound 24, 8-(4-Aminobutyl)-6-(2-chloro-4-(6-methylpyridin-2-yl)phenyl)-2-((1,3-dihydroxypropan-2-yl)amino)pyrido[2,3-d]pyrimidin-7(8H)-one]
ΔTm MR24 (24) (CaMK2b): -0.8 °C
ΔTm MR24 (24) (MAP2K6): 2.8 °C
ΔTm MR24 (24) (CK2a2): -2.0 °C
ΔTm MR24 (24) (FES): 4.3 °C
ΔTm MR24 (24) (p38a): 2.8 °C
ΔTm MR24 (24) (MAPKAPK2): -0.1 °C
ΔTm MR24 (24) (FLT1): 1.0 °C
ΔTm MR24 (24) (FGFR1): 0.4 °C
ΔTm MR24 (24) (PHKG2): 1.0 °C
ΔTm MR24 (24) (AAK1): -0.4 °C
ΔTm MR24 (24) (NEK2): 5.6 °C
ΔTm MR24 (24) (CDK2): 1.2 °C
ΔTm MR24 (24) (MSK1b): -1.0 °C
ΔTm MR24 (24) (BRAF): 1.2 °C
ΔTm MR24 (24) (PAK1): 6.9 °C
ΔTm MR24 (24) (MRCKa): -0.7 °C

SMILES: CNc1ncc2cc(-c3ccc(-c4cccc(C)n4)cc3Cl)c(=O)n(CCC3CCNCC3)c2n1 [compound 22, 6-(2-Chloro-4-(6-methylpyridin-2-yl)phenyl)-2-(methylamino)-8-(2-(piperidin-4-yl)ethyl)pyrido[2,3-d]pyrimidin-7(8H)-one]
ΔTm 22 (CaMK2b): -0.9 °C
ΔTm 22 (MAP2K6): 5.6 °C
ΔTm 22 (CK2a2): -1.4 °C
ΔTm 22 (FES): 5.4 °C
ΔTm 22 (p38a): 0.7 °C
ΔTm 22 (MAPKAPK2): -0.1 °C
ΔTm 22 (FLT1): 2.6 °C
ΔTm 22 (FGFR1): 1.1 °C
ΔTm 22 (PHKG2): 1.4 °C
ΔTm 22 (AAK1): 2.8 °C
ΔTm 22 (NEK2): 6.6 °C
ΔTm 22 (CDK2): 2.5 °C
ΔTm 22 (MSK1b): 0.1 °C
ΔTm 22 (BRAF): 6.3 °C
ΔTm 22 (PAK1): 8.6 °C
ΔTm 22 (MRCKa): 1.8 °C

SMILES: CNc1ncc2cc(-c3ccc(-c4cccc(C)n4)cc3Cl)c(=O)n(CCCCN)c2n1 [compound 20, MRLW5]
ΔTm MRLW5 (20) (CaMK2b): -1.3 °C
ΔTm MRLW5 (20) (MAP2K6): 5.7 °C
ΔTm MRLW5 (20) (CK2a2): -0.6 °C
ΔTm MRLW5 (20) (FES): 5.9 °C
ΔTm MRLW5 (20) (p38a): 1.0 °C
ΔTm MRLW5 (20) (MAPKAPK2): 0.0 °C
ΔTm MRLW5 (20) (FLT1): 2.2 °C
ΔTm MRLW5 (20) (FGFR1): 0.4 °C
ΔTm MRLW5 (20) (PHKG2): 1.8 °C
ΔTm MRLW5 (20) (AAK1): 1.4 °C
ΔTm MRLW5 (20) (NEK2): 4.6 °C
ΔTm MRLW5 (20) (CDK2): 1.3 °C
ΔTm MRLW5 (20) (MSK1b): 2.9 °C
ΔTm MRLW5 (20) (BRAF): 4.1 °C
ΔTm MRLW5 (20) (PAK1): 7.5 °C
ΔTm MRLW5 (20) (MRCKa): 1.0 °C

SMILES: CNc1ncc2cc(-c3ccc(-c4cccc(C)n4)cc3Cl)c(=O)n(C[C@H]3CC[C@H](N)CC3)c2n1 [compound 23, 23]
ΔTm 23 (CaMK2b): 0.2 °C
ΔTm 23 (MAP2K6): 8.3 °C
ΔTm 23 (CK2a2): -0.9 °C
ΔTm 23 (FES): 5.5 °C
ΔTm 23 (p38a): 6.7 °C
ΔTm 23 (MAPKAPK2): -0.9 °C
ΔTm 23 (FLT1): 4.9 °C
ΔTm 23 (FGFR1): 0.7 °C
ΔTm 23 (PHKG2): 2.4 °C
ΔTm 23 (AAK1): 3.3 °C
ΔTm 23 (NEK2): 6.9 °C
ΔTm 23 (CDK2): 3.5 °C
ΔTm 23 (MSK1b): 6.4 °C
ΔTm 23 (BRAF): 6.2 °C
ΔTm 23 (PAK1): 8.9 °C
ΔTm 23 (MRCKa): 2.9 °C

Further lines, results first:

ΔTm 25 (CaMK2b): -0.1 °C
ΔTm 25 (MAP2K6): 8.3 °C
ΔTm 25 (CK2a2): -1.9 °C
ΔTm 25 (FES): 5.9 °C
ΔTm 25 (p38a): 6.1 °C
ΔTm 25 (MAPKAPK2): -0.6 °C
ΔTm 25 (FLT1): 3.5 °C
ΔTm 25 (FGFR1): -0.4 °C
ΔTm 25 (PHKG2): 4.0 °C
ΔTm 25 (AAK1): 0.8 °C
ΔTm 25 (NEK2): 8.8 °C
ΔTm 25 (CDK2): 4.9 °C
ΔTm 25 (MSK1b): 1.4 °C
ΔTm 25 (BRAF): 5.2 °C
ΔTm 25 (PAK1): 8.3 °C
ΔTm 25 (MRCKa): 0.0 °C
SMILES: Cc1cccc(-c2ccc(-c3cc4cnc(NCCCc5ccc(N)cc5)nc4n(CCCCN)c3=O)c(Cl)c2)n1 [compound 25, 8-(4-Aminobutyl)-2-((3-(4-aminophenyl)propyl)amino)-6-(2-chloro-4-(6-methylpyridin-2-yl)phenyl)pyrido[2,3-d]pyrimidin-7(8H)-one]

ΔTm MR26 (26) (CaMK2b): -0.3 °C
ΔTm MR26 (26) (MAP2K6): 3.1 °C
ΔTm MR26 (26) (CK2a2): -1.0 °C
ΔTm MR26 (26) (FES): 5.6 °C
ΔTm MR26 (26) (p38a): 4.0 °C
ΔTm MR26 (26) (MAPKAPK2): -0.2 °C
ΔTm MR26 (26) (FLT1): 2.7 °C
ΔTm MR26 (26) (FGFR1): 0.3 °C
ΔTm MR26 (26) (PHKG2): 2.1 °C
ΔTm MR26 (26) (AAK1): -0.2 °C
ΔTm MR26 (26) (NEK2): 5.9 °C
ΔTm MR26 (26) (CDK2): 0.9 °C
ΔTm MR26 (26) (MSK1b): -0.4 °C
ΔTm MR26 (26) (BRAF): 1.7 °C
ΔTm MR26 (26) (PAK1): 5.7 °C
ΔTm MR26 (26) (MRCKa): -0.2 °C
SMILES: Cc1cccc(-c2ccc(-c3cc4cnc(NCCCN5CCOCC5)nc4n(CCCCN)c3=O)c(Cl)c2)n1 [compound 26, MR26]
